Source: patent publication US20260256792A1, “TREATMENT OF CHRONIC SPONTANEOUS URTICARIA BY ADMINISTERING (R)-2-[3-[4-AMINO-3-(2-FLUORO-4-PHENOXY-PHENYL)PYRAZOLO[3,4-D]PYRIMIDIN-1-YL]PIPERIDINE-1-CARBONYL]-4-METHYL-4-[4-(OXETAN-3-YL)PIPERAZIN-1-YL]PENT-2-ENENITRILE” (priority 2023, published 2026)

Tests used:
[1] = humans, oral administration; cited from earlier work
[2] = test system: rat collagen-induced arthritis model; conditions: cited from earlier work
[3] = test system: IgG anti-TPO; experiment: Phase 2 CSU study: serum IgG anti-TPO ELISA; assay type: in vivo, human; conditions: for IgG anti-TPO (IU) Median Percent Change from Baseline: Baseline to Week 12
Text: Blood samples were also collected through Week 12 to evaluate the change in baseline in various biomarkers, including sMRGPRX2, IgG anti-TPO, IgG anti-FCεRI, IgG anti-IgE, and IL-31.
(§1) Collection of biological samples for other biomarker research was also part of this study. The following samples for biomarker research were required and were to be collected from all participants in this study: • Serum and plasma samples for soluble biomarkers and cellular tests. Analytes included IgG anti-IgE, IgG anti-FcεRI, IgG anti-TPO, IgE anti-TPO, IL-31, and sMRGPRX2. • Blood samples for immune cell phenotyping, including measurement of eosinophil levels • Blood samples for BTK occupancy in peripheral blood mononuclear cells (PBMCs) at selected sites
For each patient, serum samples were to be collected on each of four visits (Visits 2, 4, 6, and end of study/follow up).
Serum analyte testing was to be performed using the following commercial assays: • sMRGPRX2 ELISA (Cat. No. #MBS933336; MyBioSource) • IL-31 HTRF assay (Cat. No. #62HIL31PEG; Cisbio/PerkinElmer) • IgG anti-TPO ELISA (Cat. No. #ORG503; Orgentec Diagnostica GmbH)
If dilutions were to be prepared, the same dilutions were to be prepared twice from each sample. These were to be measured on different plates. Each plate was to include a standard curve. Samples were to be measured twice for all biomarkers except for sMRGPRX2. Mean measurement values were to be calculated, and the concentration of the biomarker was to be calculated using GraphPad Prism 9 software (4-PL model).
The IgG anti-TPO ELISA was performed according to the manufacturer's instructions.
Assay data ranges are described below. • sMRGPRX2: 0.1 ng/mL-10 ng/mL • IgG anti-FCεRI: 0-10000 arbitrary units (AU) • IgG anti-TPO: 0-3000 international units (IU) • IgE anti-TPO: 0-500 AU • IgG anti-IgE: 0-100000 AU • IL-31: 0.1 ng/mL-20 ng/mL

[4] = test system: immune thrombocytopenic purpura (ITP); conditions: cited from earlier work
[5] = test system: eosinophils; experiment: Phase 2 CSU study: immune cell phenotyping, eosinophil levels; assay type: in vivo, human; conditions: for Eosinophils (10^9/L) Median Percent Change from Baseline: Baseline to Week 12
Text: as §1

CC(C)(C=C(C#N)C(=O)N1CCC[C@@H](n2nc(-c3ccc(Oc4ccccc4)cc3F)c3c(N)ncnc32)C1)N1CCN(C2COC2)CC1 [rilzabrutinib, (R)-2-[3-[4-amino-3-(2-fluoro-4-phenoxy-phenyl)pyrazolo[3,4-d]pyrimidin-1-yl]piperidine-1-carbonyl]-4-methyl-4-[4-(oxetan-3-yl)piperazin-1-yl]pent-2-enenitrile]
absorption [1]: rapidly absorbed | half-life [1]: 3 to 4 h | rat collagen-induced arthritis [2]: full disease reversal | reduction from baseline for IgG anti-TPO ([3]; 400 mg TID, Week 12): 46.7% | IgG anti-TPO (IU) Median Percent Change from Baseline ([3]; 400 mg BID): −19.4% | IgG anti-TPO (IU) Median Percent Change from Baseline ([3]; 400 mg QPM): −39.9% | IgG anti-TPO (IU) Median Percent Change from Baseline ([3]; 400 mg TID): −46.7% | treatment-emergent serious adverse events (TESAEs) ([4]; ITP Phase 1/2): no treatment-emergent serious adverse events | participants achieving the primary response endpoint ([4]; ITP, treatment for at least 12 weeks): 50% | reduction in eosinophil levels ([5]; 400 mg TID, Week 12): 29.0% | Eosinophils (10^9/L) Median Percent Change from Baseline ([5]; 400 mg BID): −11.8% | Eosinophils (10^9/L) Median Percent Change from Baseline ([5]; 400 mg QPM): 7.7% | Eosinophils (10^9/L) Median Percent Change from Baseline ([5]; 400 mg TID): −29.0%
